Values after ≈ are worked out from the molar mass of the structure shown.
Experiments:
[1] = Aqueous solubility of apixaban; assay type: physicochemical
[2] = Contact angle of apixaban drug substance with water; assay type: physicochemical

dose/solubility ratio ([1]; 10 mg apixaban dose): 250 mL
solubility ([1]; aqueous medium, at all physiological pH): 40 µg/mL (≈ 87.1 µM)
contact angle [2]: 54 °
Structure (SMILES): COc1ccc(-n2nc(C(N)=O)c3c2C(=O)N(c2ccc(N4CCCCC4=O)cc2)CC3)cc1 [apixaban, 4,5,6,7-tetrahydro-1-(4-methoxyphenyl)-7-oxo-6-[4-(2-oxo-1-piperidinyl)phenyl]-1H-pyrazolo[3,4-c]pyridine-3-carboxamide]
